From paper PMC10077475, “DG9-conjugated morpholino rescues phenotype in SMA mice by reaching the CNS via a subcutaneous administration” (JCI Insight, 2023)

Test system: severe SMA mouse model (Taiwanese model)
Test: Survival of severe SMA mice after a single subcutaneous injection at PD0
Format: in vivo
Settings: single subcutaneous injection at PD0, 40 mg/kg, until humane endpoint
Experimental: To examine whether DG9 peptide can increase the efficacy of PMO, we conjugated it to an 18-mer PMO with a sequence identical to nusinersen. The DG9-PMO, unconjugated PMO, and MOE were injected into SMA model mice [Cg-Tg(SMN2)2HungSmn1^tm1Hung/J; abbreviated as Smn^–/– SMN2^Tg/Tg; commonly called the Taiwanese model]. We also used an arginine-rich peptide (R6G) that is currently being explored in clinical trials for Duchenne muscular dystrophy (DMD) and used in preclinical studies for Hutchinson-Gilford progeria syndrome ([37], [38]). The benchmark control peptide R6G was conjugated to the same PMO sequence used in our study (R6G-PMO). […] We subcutaneously injected mice with the AOs or saline (nontreated, NT) administered at postnatal day 0 (PD0) at 2 doses: 40 mg/kg or 80 mg/kg. In our preliminary experiments, we also tested lower doses of 10 and 20 mg/kg (data not shown). […] The survival was recorded until a humane endpoint was reached. For the 40 mg/kg doses, the median survival was 12 days for unconjugated PMO, 15.5 days for MOE, and 17 days for R6G-PMO, which was increased to 58 days for DG9-PMO treatment (Figure 1A and Supplemental Figure 1A; supplemental material available online with this article; https://doi.org/10.1172/jci.insight.160516DS1). The median survival increased to 57 days for unconjugated PMO, 64 days for MOE, and 121 days for DG9-PMO at the higher dose of 80 mg/kg (Figure 1A). […] In spite of no statistical difference between DG9-PMO and MOE groups, the median survival of DG9-PMO still was higher than MOE, as only 1 mouse was alive until PD200 following a 40 mg/kg injection of MOE.
SMA-transgenic mice [JAX stock 005058 FVB.Cg-Tg(SMN2)2HungSmn1^tm1Hung/J] (Smn^–/–; SMN2^Tg/Tg), also known as Taiwanese mice, were purchased from Jackson Laboratory. Heterozygous mice for Smn1 (Smn1^+/–; SMN2^–/–) generated by us were crossed with mice homozygous for Smn1 Smn^–/–; SMN2^Tg/Tg generated by us to obtain the SMA mice (Smn^–/–; SMN2^Tg/–) or the heterozygous healthy control (Smn1^+/–; SMN2^Tg/–). The SMA mice display a severe overt phenotype similar to patients with SMA type I. The mice were genotyped using a PCR assay on genomic DNA isolated from tail biopsies using the Phire Tissue Direct PCR Kit (Thermo Fisher Scientific) as per the manufacturer’s instructions. The DNA was amplified using the primers described in Supplemental Table 1 using the condition Mouse Smn: 98°C/5 minutes → 98°C/5 s 58°C/10 s 72°C/10 s × 35 cycles → 72°C/1 minute.
Injections were carried out using a 30-gauge Hamilton syringe. SMA mice identified following genotyping were randomly assigned to a treatment group. The researcher injecting mice was blinded to the treatment. SMA neonates were subcutaneously injected with 40 or 80 mg/kg of AOs at PD0, while NT and heterozygous control mice were injected with saline (n = 10–49) per group. Tissues including the quadriceps muscle, liver, kidney, spleen, diaphragm, intercostal muscle, heart, brain, and spinal cord were collected and snap-frozen in dry ice– cooled isopentane, then subsequently stored at –80°C.

## RRRRRRG [R6G-PMO]
  median survival: 17 days
